Source: KR20200032170A, “편두통 및 군발성 두통의 치료를 위한 졸미트립탄의 치료적 농도를 신속하게 달성하는 방법” (조사노 파마 코포레이션, priority 2017, dated 2019)
Like-named read-outs stand apart in the source and are kept apart here.

How the values were obtained:
migraine (편두통) = conditions: cited from earlier work; for pain freedom at 2 h / pain relief at 2 h: lowest oral dose; for pain freedom: nasal zolmitriptan
[1] = cited from earlier work
Zolmitriptan pKa = assay type: physicochemical

CNS(=O)(=O)Cc1ccc2[nH]cc(CCN(C)C)c2c1 [수마트립탄]
onset of action (migraine (편두통); injected): ≤ 10 min | Tmax ([1]; oral tablet): ~2 h | oral bioavailability ([1]; oral, as succinate): ~15%

CNCCc1c[nH]c2ccc(C[C@H]3COC(=O)N3)cc12 [N-데스메틸 졸미트립탄]
metabolite concentration relative to zolmitriptan concentration ([1]; in vivo): 2/3

CNS(=O)(=O)CCc1ccc2[nH]cc(C3CCN(C)CC3)c2c1 [나라트립탄]
pain freedom at 2 h (migraine (편두통)): 18% | pain relief at 2 h (migraine (편두통)): 49%

CN(C)CCc1c[nH]c2ccc(C[C@H]3COC(=O)N3)cc12 [졸미트립탄]
pain freedom at 2 h (migraine (편두통)): 29% | pain relief at 2 h (migraine (편두통)): 62% | pain freedom (migraine (편두통); 1 h): ~10% | pain freedom (migraine (편두통); 2 h): < 25% | pain freedom (migraine (편두통); 4 h): < 40% | efficacy and tolerability (in words) (migraine (편두통); placebo-controlled clinical trials): 효과적이고 우수한 내약성을 갖는 것으로 보여졌다 | pKa (weak base) (Zolmitriptan pKa): 9.6 | Tmax ([1]; nasal administration): ~1.5 h
